Measured values published in patent publication US5770742A, “Thiophene-tryptamine derivatives” (Allelix Biopharmaceuticals Inc., priority 1996, dated 1998).
Like-named read-outs stand apart in the source and are kept apart here.

Tests used:
5-HT1Dβ = target: T1, 5-HT1Dβ (Homo sapiens, UniProt P28222); experiment: Binding affinity, inhibition of 3H-5-HT binding, 5-HT1Dβ; conditions: 1 h, 100 nm, 60 minute at 22° C., mean of triplicate determinations
T1 construct: expressed in transfected cells
Procedure: (§1) Compounds of the previous examples, as well as reference compounds, were evaluated for binding affinity using cell types receptive specifically to 5-HT1Dα and 5-HT1Dβ ligands. The assay protocol generally entailed the incubation of membranes prepared from cells expressing the 1Dβ or 1Dα sub-type of 5-HT receptors, with ^3 H-5-HT. The test compound was incubated at 100 nm concentration with the radioligand and the membrane homogenates prepared from the recombinant cells. After a 60 minute incubation at 22° C., the incubation was terminated by vacuum filtration. The filters were washed with buffer and counted for radioactivity using liquid scintillation spectrometry. The affinity of the test compound for the 5-HT1Dβ or 5-HT1Dα receptor estimated by its inhibition of binding of the radioligand to the receptor. The result is expressed desciptively as percent inhibition of binding. Each value is the mean of triplicate determinations.

5-HT1Dα = target: T2, 5-HT1Dα (Homo sapiens, UniProt P28221); experiment: Binding affinity, inhibition of 3H-5-HT binding, 5-HT1Dα; conditions: 1 h, 100 nm, 60 minute at 22° C., mean of triplicate determinations
T2 construct: expressed in transfected cells
Procedure: as §1, with “determinations. For comparison, sumatriptan was also evaluated. The results are presented in Table 2 below, with reference to the compound numbers of Table 1 and the specific synthesis examples given above.” for “determinations.”

5-HT1D receptor = target: T3, 5-HT1D receptor (Oryctolagus cuniculus, UniProt P49144); experiment: Agonist assay, contraction of rabbit isolated saphenous vein; design: species or system rabbit (male New Zealand White)
T3 construct: Ring segments of the vein (4-5 mm in length) were cut and the endothelium gently removed; from tissue; host or cells: rabbit saphenous vein rings, endothelium removed
Procedure: Tissues were obtained from male New Zealand White rabbits (c. 3-4 kg) which were sacrificed by an overdose of pentobarbitol. The saphenous veins from both the left and right side were cleaned of fat and connective tissue and placed in Krebs solution (118 mM NaCl, 11 mM glucose, 25 mM NaHCO3, 4,7 mM KCl, 2.5 mM CaCl2 2H2 O, 1.2 mM KH2 PO4 and 1.2 mM MgSO4 7H2 O). Ring segments of the vein (4-5 mm in length) were cut and the endothelium gently removed. The segments were mounted in 10 mL baths containing Krebs buffer and were constantly aerated with 95% oxygen/5% carbon dioxide and maintained at 37° C. and pH 7.4 in order to record the isometric tension. A resting tension of 2.5 g was applied and the tissues allowed to equilibrate for 90 minutes, with washing every 15-20 minutes. After the equilibrium period, the rings were depolarized by addition of two aliquots of KCl (80 mM final concentration)separated by a 20 minute washing period. The tissues were then exposed to prazosin, idazoxan and indomethacin (all 1 μM in final concentration) for 30 minutes in order to exclude the actions of α1 - and α2 -adrenergic receptors and prostaglandin receptors respectively. […] Responses were calculated as a percentage of the maximal contraction evoked by 80 mM KCl. Only one compound was tested per preparation.
EC50 represents the concentration of the compound which causes 50% of the maximum contraction effected by it.

5-HT1 receptor = conditions: WO 93/21178, Example 67; cited from earlier work
5-HT1D = conditions: prior art; cited from earlier work
5-HT1F = conditions: prior art; cited from earlier work
other 5-HT receptors = conditions: prior art; cited from earlier work
[1] = rabbit isolated saphenous vein, 50% of the maximum contraction effected by the compound, with prazosin, idazoxan, indomethacin 1 μM, read-out: EC50

T2 sequence (P28221 whole entry): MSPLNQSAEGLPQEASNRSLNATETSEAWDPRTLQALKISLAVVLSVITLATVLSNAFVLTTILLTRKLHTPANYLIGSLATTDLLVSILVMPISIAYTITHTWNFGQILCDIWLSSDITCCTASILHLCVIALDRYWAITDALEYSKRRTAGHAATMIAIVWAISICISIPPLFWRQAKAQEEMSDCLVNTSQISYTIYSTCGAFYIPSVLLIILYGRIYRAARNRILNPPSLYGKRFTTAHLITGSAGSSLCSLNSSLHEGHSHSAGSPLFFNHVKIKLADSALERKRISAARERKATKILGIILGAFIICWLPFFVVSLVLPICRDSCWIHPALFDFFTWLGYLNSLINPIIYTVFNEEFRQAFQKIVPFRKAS
T1 sequence (P28222 whole entry): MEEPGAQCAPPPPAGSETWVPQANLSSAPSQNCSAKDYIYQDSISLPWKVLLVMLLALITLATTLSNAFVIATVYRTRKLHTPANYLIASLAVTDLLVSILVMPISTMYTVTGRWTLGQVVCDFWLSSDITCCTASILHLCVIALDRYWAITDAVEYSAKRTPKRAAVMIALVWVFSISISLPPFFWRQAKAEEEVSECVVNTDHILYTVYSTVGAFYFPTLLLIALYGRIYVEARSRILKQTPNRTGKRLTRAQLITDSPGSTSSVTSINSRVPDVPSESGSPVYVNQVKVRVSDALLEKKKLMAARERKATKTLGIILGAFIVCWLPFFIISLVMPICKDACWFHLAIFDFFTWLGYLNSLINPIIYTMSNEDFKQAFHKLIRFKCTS
T3 sequence (P49144 whole entry): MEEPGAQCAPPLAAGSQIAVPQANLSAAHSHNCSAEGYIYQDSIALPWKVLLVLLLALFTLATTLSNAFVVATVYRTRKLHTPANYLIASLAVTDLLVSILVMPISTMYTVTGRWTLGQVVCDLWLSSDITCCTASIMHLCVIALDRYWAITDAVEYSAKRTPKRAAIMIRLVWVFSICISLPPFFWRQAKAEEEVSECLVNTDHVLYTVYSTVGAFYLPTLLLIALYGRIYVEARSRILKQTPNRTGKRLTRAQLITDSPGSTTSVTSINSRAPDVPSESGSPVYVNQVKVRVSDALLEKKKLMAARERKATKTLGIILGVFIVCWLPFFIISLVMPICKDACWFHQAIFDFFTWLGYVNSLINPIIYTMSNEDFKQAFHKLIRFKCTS

Structure (SMILES) | inhibition at 0.1 µM (5-HT1Dβ) [%] | inhibition at 0.1 µM (5-HT1Dα) [%] | EC50 (5-HT1D receptor; [1]) [nM] | other results
CN1CCC(c2c[nH]c3ccc(-c4cccs4)cc23)C1 (racemic) [Compound 8, 3-(N-Methylpyrrolidin-3-yl)-5-(2-thienyl)-1H-indole] | 68 | 95 | 1730 | 
CN(C)CC(O)c1c[nH]c2ccc(-c3ccsc3)cc12 (racemic) [Compound 10, (±)-3-(2-N,N-Dimethylamino-1-hydroxylethyl)-5-(3-thienyl)-1H-indole] | 42 | 93 | 888 | 
CN1CCC[C@@H]1Cc1c[nH]c2ccc(-c3ccc(C(N)=O)s3)cc12 [5-(5-carbamoyl-2-thienyl)-3-(1-methylpyrrolidin-2(R)-ylmethyl)-1H-indole] |  |  |  | 5-HT1 receptor activity (5-HT1 receptor): some 5-HT1 receptor activity
CN1CCC[C@@H]1Cc1c[nH]c2ccc(-c3cccs3)cc12 [Compound 1, 3-(N-Methylpyrrolidin-2R-ylmethyl)-5-(2-thienyl)-1H-indole] | 84 | 98 | 121 | 
CN1CCC[C@@H]1Cc1c[nH]c2ccc(-c3ccsc3)cc12 [Compound 2, 3-(N-Methylpyrrolidin-2R-ylmethyl)-5-(3-thienyl)-1H-indole] | 83 | 99 | 140 | 
CN(C)CCc1c[nH]c2ccc(-c3ccsc3)cc12 [Compound 3, 3-(2-N,N-Dimethylaminoethyl)-5-(3-thienyl)-1H-indole] | 78 | 98 | 432 | 
CN(C)CCc1c[nH]c2ccc(-c3cccs3)cc12 [Compound 4, 3-(2-N,N-Dimethylaminoethyl)-5-(2-thienyl)-1H-indole] | 72 | 97 | 806 | 
CN(C)CCc1c[nH]c2ccc(-c3ccc(CO)s3)cc12 [Compound 5, 3-(2-N,N-Dimethylaminoethyl)-5-(5-hydroxymethylthienyl-2-yl)-1H-indole] | 77 | 96 |  | 
CN1CCC[C@H]1Cc1c[nH]c2ccc(-c3cccs3)cc12 [Compound 6, 3-(N-Methylpyrrolidin-2S-ylmethyl)-5-(2-thienyl)-1H-indole] | 47 | 96 | 873 | 
NCCc1c[nH]c2ccc(-c3cccs3)cc12 [Compound 7, 3-(2-Aminoethyl)-5-(2-thienyl)-1H-indole] | 78 | 98 | 607 | 
CN(C)CCc1c[nH]c2ccc(-c3ccc(Cl)s3)cc12 [Compound 9, 5-(5-Chlorothien-2-yl)-3-(2-N,N-dimethylaminoethyl)-1H-indole] | 83 | 97 |  | 
c1csc(-c2ccc3[nH]cc(CCN4CCCC4)c3c2)c1 [Compound 11, 3-(2-Pyrrolidinylethyl)-5-(2-thienyl)-1H-indole] | 14 | 84 |  | EC50 (5-HT1D receptor): 2340 nM; Emax (5-HT1D receptor; rabbit isolated saphenous vein, maximum contraction vs KCl (80 mM), read-out: agonist type (maximum contraction relative to 80 mM KCl)): < 60%
Cc1ccc(-c2ccc3[nH]cc(CCN(C)C)c3c2)s1 [Compound 12, 3-(2-N,N-Dimethylaminoethyl)-5-(5-methylthien-2-yl)-1H-indole] | 52 | 87 |  | 
CNS(=O)(=O)Cc1ccc2[nH]cc(CCN(C)C)c2c1 [Sumatriptan] |  | 95 |  | binding affinity for 5-HT1D (5-HT1D): high affinity; binding affinity for 5-HT1F (5-HT1F): high affinity; binding to other 5-HT receptors (other 5-HT receptors): substantial exclusion of other 5-HT receptors
